In assay [1] the test system is cGAS activity in Reporter THP1 cell line. The assay is described as follows: Cellular assay to measure cGAS activity: ISRE-Gaussia luciferase reporter THP1 cells transfected with ISD. It is filed as cell-based. To be noted: Homo sapiens, THP-1, untitled table after Table 4 (continuation). The method in brief:
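THP1 ISRE-Gaussia luciferase reporter cells (0.3×10^6/well) pre-incubated 5 min with compound serial dilutions, then lipofectamine-transfected with 2 μg/mL ISD (45 bp DNA) or mock. Secreted luciferase read 16 h later with 1 μM coelenterazine at pH 6.5; IC50 from fold increase over mock. Specificity counter-screen used 2 μg/mL poly(I:C) or Sendai virus 50 Unit/mL.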
Background: Reporter assays use an easily measured gene product as a stand-in for the process of interest.

In assay [2] the target is T1, recombinant human cGAS (aa147-522) (Homo sapiens, UniProt Q8N884).
T1 construct: recombinant human cGAS (aa147-522); His6-SUMO (cleaved yes); made in house; host or cells: E. coli BL21/pLys
T1 sequence (Q8N884 147-522): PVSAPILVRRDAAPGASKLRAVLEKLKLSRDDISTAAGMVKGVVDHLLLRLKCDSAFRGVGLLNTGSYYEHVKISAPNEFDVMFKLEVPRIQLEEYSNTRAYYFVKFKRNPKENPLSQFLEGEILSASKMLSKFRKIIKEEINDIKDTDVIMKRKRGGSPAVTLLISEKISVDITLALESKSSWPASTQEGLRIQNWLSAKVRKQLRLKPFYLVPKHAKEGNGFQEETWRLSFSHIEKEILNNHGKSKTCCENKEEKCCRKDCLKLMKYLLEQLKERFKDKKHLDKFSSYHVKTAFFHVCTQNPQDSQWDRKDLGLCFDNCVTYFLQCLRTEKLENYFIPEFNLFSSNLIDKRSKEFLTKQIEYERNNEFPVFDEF
The assay is described as follows: In vitro inhibition assay of cGAS activity (ATP consumption, KinaseGlo Max). It counts as biochemical. The settings on record: Table 3, read-out: cGAS Inhibition Results IC50. An outline of the steps: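 De-tagged recombinant human cGAS (aa147-522, 1.5 μg/mL) was incubated 20 min at 37 °C with herring testis DNA, 6.6 μM ATP and 0.1 mM GTP in Tris pH 7.5/MgCl2 buffer plus serial compound dilutions. Remaining ATP was read by KinaseGlo Max luminescence, and IC50 was fitted from % ATP consumption versus log concentration.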
Background: Kinase-Glo reads ATP consumption through a luciferase reaction.

Structures are written as SMILES.

The IC50 is the point on the concentration scale where inhibition reaches its midpoint. As to `NC(=O)COC[C@@H]1CCCN1c1cc(-n2ccnc2)c2ccc(Cl)c(Cl)c2n1` [I-760, (S)-2-((1-(7,8-dichloro-4-(1H-imidazol-1-yl)quinolin-2-yl)pyrrolidin-2-yl)methoxy)acetamide], the figures for the IC50 in assay [1] and in assay [2] were greater than 10 µM and less than 2000 nM, respectively.
Regarding `O=C(COC[C@@H]1CCCN1c1cc(-n2ccnc2)c2ccc(Cl)c(Cl)c2n1)NO` [I-761], the IC50 in assay [1] is greater than 10 µM; in assay [2], less than 2000 nM.
In the case of `N#CNC(=O)COC[C@@H]1CCCN1c1cc(-n2ccnc2)c2ccc(Cl)c(Cl)c2n1` [I-762], the IC50 in assay [1] is greater than 10 µM; in assay [2] it was less than 2000 nM.
In the case of `CC(=O)N[C@H]1CCN(c2cc(-n3ccnc3)c3ccc(Cl)c(Cl)c3n2)C1` [I-764, (S)—N-(1-(7,8-dichloro-4-(1H-imidazol-1-yl)quinolin-2-yl)pyrrolidin-3-yl)acetamide], the results for the IC50 in assay [1] and in assay [2] were greater than 10 µM and less than 2000 nM, respectively.
As to `N[C@H]1CCN(c2cc(-n3ccnc3)c3ccc(Cl)c(Cl)c3n2)C1` [I-765, (S)-1-(7,8-dichloro-4-(1H-imidazol-1-yl)quinolin-2-yl)pyrrolidin-3-amine], the half-inhibitory concentration (IC50) lay in the range of 2 to 10 µM in assay [1] and 2000 to 30000 nM in assay [2].
For `O=C(O)CCOC[C@@H]1CCN(c2cc(-n3ccnc3)c3ccc(Cl)c(Cl)c3n2)C1` [I-773], the IC50 in assay [1] was less than 2 µM; in assay [2], less than 2000 nM.
On to `O=C1C[C@@H]2[C@@H](CCN2c2cc(-n3ccnc3)c3ccc(Cl)c(Cl)c3n2)O1` [I-774, (3aR,6aR)-4-(7,8-dichloro-4-(1H-imidazol-1-yl)quinolin-2-yl)hexahydro-2H-furo[3,2-b]pyrrol-2-one], for which the IC50 in assay [1] is 2 to 10 µM; in assay [2] it was less than 2000 nM.
For `O=C1OCC2CCN(c3cc(-n4ccnc4)c4ccc(Cl)c(Cl)c4n3)C12` (centres unmarked) [I-775, 1-(7,8-dichloro-4-(1H-imidazol-1-yl)quinolin-2-yl)hexahydro-6H-furo[3,4-b]pyrrol-6-one], the IC50 is 2 to 10 µM in assay [1] and less than 2000 nM in assay [2].
As for `O=C(O)C[C@H]1CCCN1c1cc(-n2ccnc2)c2ccc(Cl)c(Cl)c2n1` [I-776], the IC50 was greater than 10 µM in assay [1] and less than 2000 nM in assay [2].
Turning to `C[C@@H]1CN(c2cc(-n3ccnc3)c3ccc(Cl)c(Cl)c3n2)[C@H](C(=O)O)[C@H]1O` [I-778], the IC50 in assay [1] is greater than 10 µM; in assay [2], 2000 to 30000 nM.
Consider `CCOC(=O)[C@@H]1[C@@H](O)[C@H](C)CN1c1cc(-n2ccnc2)c2ccc(Cl)c(Cl)c2n1` [I-779], for which the IC50 in assay [1] is greater than 10 µM; in assay [2], 2000 to 30000 nM.
As to `C[C@H]1[C@@H](C(=O)O)N(c2cc(-n3ccnc3)c3ccc(Cl)c(Cl)c3n2)C[C@@H]1O` [I-780], the IC50 in assay [1] was greater than 10 µM; in assay [2] it was 2000 to 30000 nM.
For `O=C(O)C[C@@H]1[C@H](O)CCN1c1cc(-n2ccnc2)c2ccc(Cl)c(Cl)c2n1` [I-781, 2-((2R,3R)-1-(7,8-dichloro-4-(1H-imidazol-1-yl)quinolin-2-yl)-3-hydroxypyrrolidin-2-yl)acetic acid], the IC50 in assay [1] is greater than 10 µM; in assay [2] it was less than 2000 nM.
`O=C(O)CCNC(=O)[C@@H]1[C@@H](O)CCN1c1cc(-n2ccnc2)c2ccc(Cl)c(Cl)c2n1` [I-784, 3-((2S,3S)-1-(7,8-dichloro-4-(1H-imidazol-1-yl)quinolin-2-yl)-3-hydroxypyrrolidine-2-carboxamido)propanoic acid]: the IC50 is greater than 10 µM in assay [1] and less than 2000 nM in assay [2].
With `O=C(O)C[C@@H]1[C@@H](O)CCN1c1cc(-n2ccnc2)c2ccc(Cl)c(Cl)c2n1` [I-785, 2-((2R,3S)-1-(7,8-dichloro-4-(1H-imidazol-1-yl)quinolin-2-yl)-3-hydroxypyrrolidin-2-yl)acetic acid], the IC50 is greater than 10 µM in assay [1] and less than 2000 nM in assay [2].
For `COC(=O)C[C@@H]1[C@@H](O)CCN1c1cc(-n2ccnc2)c2ccc(Cl)c(Cl)c2n1` [I-786, methyl 2-((2R,3S)-1-(7,8-dichloro-4-(1H-imidazol-1-yl)quinolin-2-yl)-3-hydroxypyrrolidin-2-yl)acetate], in that order: 2 to 10 µM and less than 2000 nM.
For `CCOC(=O)CNC(=O)C[C@@H]1[C@@H](O)CCN1c1cc(-n2ccnc2)c2ccc(Cl)c(Cl)c2n1` [I-787, ethyl (2-((2R,3S)-1-(7,8-dichloro-4-(1H-imidazol-1-yl)quinolin-2-yl)-3-hydroxypyrrolidin-2-yl)acetyl)glycinate], in that order: 2 to 10 µM and less than 2000 nM.
In the case of `O=C(O)CNC(=O)C[C@@H]1[C@@H](O)CCN1c1cc(-n2ccnc2)c2ccc(Cl)c(Cl)c2n1` [I-788, (2-((2R,3S)-1-(7,8-dichloro-4-(1H-imidazol-1-yl)quinolin-2-yl)-3-hydroxypyrrolidin-2-yl)acetyl)glycine], the figures for the IC50 in assay [1] and in assay [2] were greater than 10 µM and less than 2000 nM, respectively.
`O=C(O)CCOC[C@@H]1CCCCN1c1cc(-n2ccnc2)c2ccc(Cl)c(Cl)c2n1` [I-789]: the IC50 in assay [1] is less than 2 µM; in assay [2] it was less than 2000 nM.
As to `COC(=O)CCNC(=O)[C@@H]1[C@@H](O)CCN1c1cc(-n2ccnc2)c2ccc(Cl)c(Cl)c2n1` [I-791, methyl 3-((2S,3S)-1-(7,8-dichloro-4-(1H-imidazol-1-yl)quinolin-2-yl)-3-hydroxypyrrolidine-2-carboxamido)propanoate], the IC50 in assay [1] is greater than 10 µM; in assay [2], 2000 to 30000 nM.
For `C[C@H]1CCN(c2cc(-n3ccnc3)c3ccc(Cl)c(Cl)c3n2)[C@@H]1COCCC(=O)O` [I-792], the IC50 was less than 2 µM in assay [1] and less than 2000 nM in assay [2].
Turning to `O=C(O)CCOC[C@@H]1C[C@H](C(F)(F)F)CN1c1cc(-n2ccnc2)c2ccc(Cl)c(Cl)c2n1` [I-793], the IC50 in assay [1] was less than 2 µM; in assay [2], less than 2000 nM.
With `CC1(C)C[C@@H](COCCC(=O)O)N(c2cc(-n3ccnc3)c3ccc(Cl)c(Cl)c3n2)C1` [I-794], the IC50 is less than 2 µM in assay [1] and less than 2000 nM in assay [2].
For `C[C@@H]1C[C@@H](COCCC(=O)O)N(c2cc(-n3ccnc3)c3ccc(Cl)c(Cl)c3n2)C1` [I-795], in that order: less than 2 µM and less than 2000 nM.
For `CC(C)(C)O[C@@H]1C[C@@H](COCCC(=O)O)N(c2cc(-n3ccnc3)c3ccc(Cl)c(Cl)c3n2)C1` [I-796], the figures for the IC50 in assay [1] and in assay [2] were less than 2 µM and less than 2000 nM, respectively.
Consider `CO[C@H]1C[C@@H](COCCC(=O)O)N(c2cc(-n3ccnc3)c3ccc(Cl)c(Cl)c3n2)C1` [I-797], for which the IC50 in assay [1] is less than 2 µM; in assay [2] it was less than 2000 nM.
The like results for `O=C(O)CCOC[C@@H]1C[C@@H](N2CCOCC2)CN1c1cc(-n2ccnc2)c2ccc(Cl)c(Cl)c2n1` [I-799] were, in that order, greater than 10 µM and less than 2000 nM.
In the case of `O=C(O)CCOCC12CC(CN1c1cc(-n3ccnc3)c3ccc(Cl)c(Cl)c3n1)C2` [I-800], the IC50 is less than 2 µM in assay [1] and less than 2000 nM in assay [2].
As for `C=C1C[C@@H](COCCC(=O)O)N(c2cc(-n3ccnc3)c3ccc(Cl)c(Cl)c3n2)C1` [I-801], the IC50 in assay [1] was less than 2 µM; in assay [2], less than 2000 nM.
For `O=C(O)CCOC[C@@H]1C[C@@H](c2ccccc2)CN1c1cc(-n2ccnc2)c2ccc(Cl)c(Cl)c2n1` [I-802], in that order: less than 2 µM and less than 2000 nM.
On to `O=C(O)CCOC[C@@H]1C[C@@H](C2CCCCC2)CN1c1cc(-n2ccnc2)c2ccc(Cl)c(Cl)c2n1` [I-803], for which the figures for the IC50 in assay [1] and in assay [2] were less than 2 µM and less than 2000 nM, respectively.

(Values after patent US11873291B2, “Quinoline cGAS antagonist compounds” (ImmuneSensor Therapeutics, Inc., priority 2020, dated 2024).)
